Laboratory results: patent US7074789B2, “Kinase inhibitors” (Amgen Inc., priority 1999, dated 2006)

Key:
Format in all cases: biochemical
FGFR1 = target: T1, FGFR1 (Homo sapiens, UniProt P11362); test: Kinase inhibition assay (33P transfer), FGFR1; details: read-out: FGFR1-1
T1 construct: Kinases are expressed as either kinase domains or full length constructs; made in house

Zap-70 = target: T2, Zap-70 (Homo sapiens, UniProt P43403); test: Kinase inhibition assay (33P transfer), Zap-70; details: Table 3; read-out: Zap-1
T2 construct: Kinases are expressed as either kinase domains or full length constructs; made in house
T2 sequence (P43403 1-619): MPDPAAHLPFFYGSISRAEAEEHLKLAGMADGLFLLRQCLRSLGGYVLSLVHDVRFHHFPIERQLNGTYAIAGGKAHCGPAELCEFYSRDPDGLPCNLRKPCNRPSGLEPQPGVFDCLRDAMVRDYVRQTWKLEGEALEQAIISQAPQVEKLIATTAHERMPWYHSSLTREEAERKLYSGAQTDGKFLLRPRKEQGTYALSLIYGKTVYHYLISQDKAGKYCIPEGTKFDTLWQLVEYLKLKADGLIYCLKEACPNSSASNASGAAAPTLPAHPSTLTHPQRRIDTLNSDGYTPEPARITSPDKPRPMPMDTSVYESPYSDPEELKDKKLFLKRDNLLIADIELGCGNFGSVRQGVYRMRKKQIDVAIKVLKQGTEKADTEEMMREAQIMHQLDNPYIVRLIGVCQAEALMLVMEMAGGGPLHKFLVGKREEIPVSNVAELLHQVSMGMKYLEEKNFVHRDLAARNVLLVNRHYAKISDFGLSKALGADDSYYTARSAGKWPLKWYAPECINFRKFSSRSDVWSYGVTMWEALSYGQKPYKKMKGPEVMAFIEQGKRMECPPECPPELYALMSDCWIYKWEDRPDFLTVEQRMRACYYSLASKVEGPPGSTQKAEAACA
How it was run: (§1)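 Enzyme activity is taken as the amount of 33PO4 moved from ATP onto poly(Glu, Tyr) 4:1 or poly(Arg, Ser) 3:1 fixed to the plate surface. Unbound label is removed with 0.5% phosphoric acid before scintillation counting.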

c-Met = target: T3, c-Met (Homo sapiens, UniProt P08581); test: Kinase inhibition assay (33P transfer), c-Met; details: Table 2, kinase inhibition class; read-out: Met-1
T3 construct: Kinases are expressed as either kinase domains or full length constructs; made in house
T3 sequence (P08581 25-1390): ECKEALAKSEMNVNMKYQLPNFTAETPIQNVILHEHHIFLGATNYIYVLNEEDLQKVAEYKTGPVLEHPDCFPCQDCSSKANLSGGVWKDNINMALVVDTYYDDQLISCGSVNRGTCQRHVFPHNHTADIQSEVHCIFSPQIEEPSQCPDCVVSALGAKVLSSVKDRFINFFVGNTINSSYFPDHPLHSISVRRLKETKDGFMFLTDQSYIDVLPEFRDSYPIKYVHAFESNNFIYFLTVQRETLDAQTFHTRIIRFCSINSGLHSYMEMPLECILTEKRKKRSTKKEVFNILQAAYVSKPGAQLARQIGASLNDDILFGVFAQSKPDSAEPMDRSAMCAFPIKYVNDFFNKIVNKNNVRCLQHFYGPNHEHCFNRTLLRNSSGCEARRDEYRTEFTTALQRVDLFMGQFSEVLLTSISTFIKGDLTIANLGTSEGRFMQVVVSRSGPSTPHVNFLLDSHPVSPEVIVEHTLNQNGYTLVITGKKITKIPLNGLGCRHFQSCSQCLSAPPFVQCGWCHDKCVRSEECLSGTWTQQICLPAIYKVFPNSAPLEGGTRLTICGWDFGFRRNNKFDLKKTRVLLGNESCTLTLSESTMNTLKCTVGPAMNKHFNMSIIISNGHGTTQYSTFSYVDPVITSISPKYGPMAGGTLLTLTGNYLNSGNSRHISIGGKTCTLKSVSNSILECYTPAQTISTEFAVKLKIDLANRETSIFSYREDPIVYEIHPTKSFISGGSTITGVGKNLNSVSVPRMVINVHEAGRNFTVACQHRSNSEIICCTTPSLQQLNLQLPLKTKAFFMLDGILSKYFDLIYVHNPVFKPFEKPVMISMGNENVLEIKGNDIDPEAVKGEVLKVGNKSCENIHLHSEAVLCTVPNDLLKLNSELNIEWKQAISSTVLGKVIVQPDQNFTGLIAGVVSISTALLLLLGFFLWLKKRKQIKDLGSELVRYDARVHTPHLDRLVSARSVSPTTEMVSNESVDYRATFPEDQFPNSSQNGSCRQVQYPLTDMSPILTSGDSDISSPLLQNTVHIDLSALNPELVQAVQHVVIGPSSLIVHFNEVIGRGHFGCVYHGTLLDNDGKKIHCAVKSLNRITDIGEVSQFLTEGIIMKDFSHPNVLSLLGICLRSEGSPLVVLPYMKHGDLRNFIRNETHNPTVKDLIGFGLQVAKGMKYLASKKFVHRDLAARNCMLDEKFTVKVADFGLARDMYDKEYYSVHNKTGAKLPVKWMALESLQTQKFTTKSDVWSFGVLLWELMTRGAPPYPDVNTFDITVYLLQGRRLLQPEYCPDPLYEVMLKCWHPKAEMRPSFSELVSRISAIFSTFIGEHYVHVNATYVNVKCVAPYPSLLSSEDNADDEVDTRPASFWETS
How it was run: (§2)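 GST/His-fusion kinases, E. coli or High Five expressed, affinity purified; 33P-ATP, plate-coated poly(Glu,Tyr) 4:1 or poly(Arg,Ser) 3:1; 0.5% H3PO4 wash, scintillant, LSC.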

Kdr = target: T4, Kdr (Homo sapiens, UniProt P35968); test: Kinase inhibition assay (33P transfer), Kdr; details: Table 3; read-out: KDR-1
T4 construct: Kinases are expressed as either kinase domains or full length constructs; made in house
T4 sequence (P35968 20-1356, species assumed): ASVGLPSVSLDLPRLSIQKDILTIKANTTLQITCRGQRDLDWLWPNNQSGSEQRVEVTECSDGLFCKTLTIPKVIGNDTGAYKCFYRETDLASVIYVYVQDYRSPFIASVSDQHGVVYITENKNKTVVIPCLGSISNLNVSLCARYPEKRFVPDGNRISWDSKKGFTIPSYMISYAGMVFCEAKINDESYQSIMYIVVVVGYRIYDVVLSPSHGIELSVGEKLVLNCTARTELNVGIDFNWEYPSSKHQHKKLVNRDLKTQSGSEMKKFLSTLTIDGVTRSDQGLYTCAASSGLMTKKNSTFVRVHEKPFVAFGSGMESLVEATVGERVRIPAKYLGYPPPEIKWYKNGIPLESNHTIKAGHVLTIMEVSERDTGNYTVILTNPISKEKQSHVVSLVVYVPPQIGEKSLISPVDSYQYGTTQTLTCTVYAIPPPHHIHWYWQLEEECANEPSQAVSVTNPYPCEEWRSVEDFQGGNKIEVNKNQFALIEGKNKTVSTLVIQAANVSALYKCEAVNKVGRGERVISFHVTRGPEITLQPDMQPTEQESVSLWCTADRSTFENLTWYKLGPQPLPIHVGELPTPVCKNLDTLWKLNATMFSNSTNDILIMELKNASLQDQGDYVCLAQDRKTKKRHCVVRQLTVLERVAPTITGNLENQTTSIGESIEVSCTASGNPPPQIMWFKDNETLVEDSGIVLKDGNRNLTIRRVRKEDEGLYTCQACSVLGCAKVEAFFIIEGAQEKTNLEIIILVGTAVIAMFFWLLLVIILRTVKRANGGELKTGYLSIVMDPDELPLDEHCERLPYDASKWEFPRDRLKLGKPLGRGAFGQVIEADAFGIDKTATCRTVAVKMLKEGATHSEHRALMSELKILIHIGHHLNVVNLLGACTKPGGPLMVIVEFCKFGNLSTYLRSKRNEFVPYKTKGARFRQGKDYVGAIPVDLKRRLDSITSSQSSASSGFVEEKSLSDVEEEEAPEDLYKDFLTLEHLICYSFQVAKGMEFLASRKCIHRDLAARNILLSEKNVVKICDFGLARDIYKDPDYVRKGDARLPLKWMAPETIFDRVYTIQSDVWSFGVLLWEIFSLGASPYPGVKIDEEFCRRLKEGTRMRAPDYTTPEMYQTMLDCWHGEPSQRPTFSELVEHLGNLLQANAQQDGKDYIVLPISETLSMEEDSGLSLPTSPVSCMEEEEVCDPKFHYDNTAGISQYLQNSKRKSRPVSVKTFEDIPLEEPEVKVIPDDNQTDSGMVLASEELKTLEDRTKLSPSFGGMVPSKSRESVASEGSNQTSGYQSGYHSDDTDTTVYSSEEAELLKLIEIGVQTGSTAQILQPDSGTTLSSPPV
How it was run: as §1

EPHB4 = target: T5, EPHB4 (Homo sapiens, UniProt P54760); test: Kinase inhibition assay (33P transfer), EPHB4; details: read-out: EPHB4-1
T5 construct: Kinases are expressed as either kinase domains or full length constructs; made in house
T5 sequence (P54760 16-987): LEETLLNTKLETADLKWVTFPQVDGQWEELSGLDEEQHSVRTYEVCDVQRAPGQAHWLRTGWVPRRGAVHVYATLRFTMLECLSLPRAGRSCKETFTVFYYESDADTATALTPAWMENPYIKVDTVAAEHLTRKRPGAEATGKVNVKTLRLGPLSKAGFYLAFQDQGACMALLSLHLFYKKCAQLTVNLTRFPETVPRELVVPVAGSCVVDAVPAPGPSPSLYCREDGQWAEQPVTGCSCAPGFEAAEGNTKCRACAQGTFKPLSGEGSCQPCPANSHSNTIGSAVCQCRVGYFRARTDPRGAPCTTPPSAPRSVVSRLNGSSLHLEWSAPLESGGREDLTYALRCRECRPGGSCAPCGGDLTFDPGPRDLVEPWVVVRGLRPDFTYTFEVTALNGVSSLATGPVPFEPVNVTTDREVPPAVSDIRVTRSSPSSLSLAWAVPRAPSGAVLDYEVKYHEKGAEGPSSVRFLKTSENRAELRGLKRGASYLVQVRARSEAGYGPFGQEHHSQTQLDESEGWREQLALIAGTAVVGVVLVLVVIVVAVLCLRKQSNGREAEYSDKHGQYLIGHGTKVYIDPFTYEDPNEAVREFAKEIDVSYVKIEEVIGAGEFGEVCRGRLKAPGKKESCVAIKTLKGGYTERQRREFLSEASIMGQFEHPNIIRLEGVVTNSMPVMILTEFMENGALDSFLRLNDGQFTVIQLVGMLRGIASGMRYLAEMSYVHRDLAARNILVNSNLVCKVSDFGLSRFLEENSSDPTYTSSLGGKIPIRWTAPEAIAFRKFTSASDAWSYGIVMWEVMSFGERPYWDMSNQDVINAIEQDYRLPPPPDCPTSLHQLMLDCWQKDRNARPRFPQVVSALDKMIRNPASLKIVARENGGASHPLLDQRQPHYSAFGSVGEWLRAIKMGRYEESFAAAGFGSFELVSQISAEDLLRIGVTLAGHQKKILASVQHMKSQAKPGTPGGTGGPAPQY

Lyn = target: T6, Lyn (Homo sapiens, UniProt P07948); test: Kinase inhibition assay (33P transfer), Lyn; details: Table 6, Lyn-1 kinase inhibition class
T6 construct: Kinases are expressed as either kinase domains or full length constructs; made in house
How it was run: as §2

Tek = target: T7, Tek (Homo sapiens, UniProt Q02763); test: Kinase inhibition assay (33P transfer), Tek; details: read-out: Tek-1
T7 construct: Kinases are expressed as either kinase domains or full length constructs; made in house
T7 sequence (Q02763 23-1124, species assumed): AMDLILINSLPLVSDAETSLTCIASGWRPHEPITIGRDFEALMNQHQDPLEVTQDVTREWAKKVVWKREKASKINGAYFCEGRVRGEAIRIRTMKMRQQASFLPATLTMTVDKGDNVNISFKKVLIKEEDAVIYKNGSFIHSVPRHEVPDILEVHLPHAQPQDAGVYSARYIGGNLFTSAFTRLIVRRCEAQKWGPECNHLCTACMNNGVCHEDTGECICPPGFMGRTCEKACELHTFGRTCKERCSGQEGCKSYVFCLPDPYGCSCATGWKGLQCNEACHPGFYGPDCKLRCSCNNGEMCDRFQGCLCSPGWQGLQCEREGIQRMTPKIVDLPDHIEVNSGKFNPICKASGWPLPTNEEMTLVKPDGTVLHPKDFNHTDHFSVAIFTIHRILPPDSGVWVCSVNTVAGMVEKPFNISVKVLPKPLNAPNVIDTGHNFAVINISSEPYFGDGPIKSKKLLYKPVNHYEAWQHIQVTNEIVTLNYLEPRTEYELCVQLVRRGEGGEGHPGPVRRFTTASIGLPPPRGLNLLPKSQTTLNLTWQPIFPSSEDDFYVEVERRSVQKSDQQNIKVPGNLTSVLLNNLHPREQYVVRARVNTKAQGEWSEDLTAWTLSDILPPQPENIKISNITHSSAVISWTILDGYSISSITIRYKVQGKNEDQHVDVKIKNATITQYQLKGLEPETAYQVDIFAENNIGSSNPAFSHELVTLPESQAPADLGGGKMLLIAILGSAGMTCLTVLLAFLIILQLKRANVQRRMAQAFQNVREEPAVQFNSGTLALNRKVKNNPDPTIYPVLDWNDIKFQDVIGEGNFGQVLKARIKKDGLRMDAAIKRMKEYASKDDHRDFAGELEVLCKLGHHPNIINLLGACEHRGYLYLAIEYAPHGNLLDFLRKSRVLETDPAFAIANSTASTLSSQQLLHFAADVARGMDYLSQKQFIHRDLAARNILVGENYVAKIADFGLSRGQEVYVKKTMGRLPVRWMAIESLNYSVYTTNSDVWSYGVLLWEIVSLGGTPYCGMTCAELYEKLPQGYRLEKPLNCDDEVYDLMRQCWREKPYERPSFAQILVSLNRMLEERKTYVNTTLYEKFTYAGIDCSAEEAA
How it was run: as §2

Ret-1 = target: T8, Ret-1 (Homo sapiens, UniProt P07949); test: Kinase inhibition assay (33P transfer), Ret; details: Table 6, Ret-1 kinase inhibition class
T8 construct: Kinases are expressed as either kinase domains or full length constructs; made in house
T8 sequence (P07949 29-1114): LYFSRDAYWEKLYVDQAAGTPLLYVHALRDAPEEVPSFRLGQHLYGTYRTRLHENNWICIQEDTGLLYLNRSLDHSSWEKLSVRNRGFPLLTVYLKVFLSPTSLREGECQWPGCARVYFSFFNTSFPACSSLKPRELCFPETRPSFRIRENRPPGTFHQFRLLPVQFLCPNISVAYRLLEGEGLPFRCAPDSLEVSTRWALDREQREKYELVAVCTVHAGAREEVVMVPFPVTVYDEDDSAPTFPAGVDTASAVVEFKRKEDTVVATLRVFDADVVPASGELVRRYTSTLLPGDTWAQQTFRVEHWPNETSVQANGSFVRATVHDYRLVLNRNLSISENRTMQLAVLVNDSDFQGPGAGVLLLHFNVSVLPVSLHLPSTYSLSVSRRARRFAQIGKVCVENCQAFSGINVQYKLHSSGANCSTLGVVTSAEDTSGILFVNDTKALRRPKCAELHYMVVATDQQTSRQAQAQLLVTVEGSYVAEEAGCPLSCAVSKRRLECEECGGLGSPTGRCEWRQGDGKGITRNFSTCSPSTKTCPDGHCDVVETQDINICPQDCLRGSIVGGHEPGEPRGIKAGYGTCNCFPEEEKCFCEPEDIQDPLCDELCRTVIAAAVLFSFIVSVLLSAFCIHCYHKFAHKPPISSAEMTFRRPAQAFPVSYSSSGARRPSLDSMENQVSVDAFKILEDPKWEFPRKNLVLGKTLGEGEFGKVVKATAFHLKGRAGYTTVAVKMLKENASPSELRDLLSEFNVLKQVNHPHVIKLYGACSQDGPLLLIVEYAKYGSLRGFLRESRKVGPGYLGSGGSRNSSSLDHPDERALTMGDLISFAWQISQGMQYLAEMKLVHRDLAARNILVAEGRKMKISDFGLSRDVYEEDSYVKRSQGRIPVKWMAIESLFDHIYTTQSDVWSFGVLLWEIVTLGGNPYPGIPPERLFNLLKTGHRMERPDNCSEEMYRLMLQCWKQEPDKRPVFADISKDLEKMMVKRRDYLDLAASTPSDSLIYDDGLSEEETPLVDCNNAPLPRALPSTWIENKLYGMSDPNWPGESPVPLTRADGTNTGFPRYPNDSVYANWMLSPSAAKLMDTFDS

Hck-1 = target: T9, Hck-1 (Homo sapiens, UniProt P08631); test: Kinase inhibition assay (33P transfer), Hck; details: Table 6, Hck-1 kinase inhibition class
T9 construct: Kinases are expressed as either kinase domains or full length constructs; made in house

COc1cc(Nc2ncnc(Nc3ccc4c(ccn4Cc4ccccc4)c3)n2)cc(OC)c1OC [Compound 178]
IC50 (FGFR1): 7.25 to 9.33 µM | IC50 (Zap-70): 0.829 to 4.97 µM | IC50 (c-Met): 4.97 to 7.25 µM | IC50 (Kdr): 829 to 4970 nM | IC50 (EPHB4): 4.97 to 7.25 µM | IC50 (Lyn): < 0.829 µM | IC50 (Tek): 4.97 to 7.25 µM | IC50 (Ret-1): 4.97 to 7.25 µM | IC50 (Hck-1): > 9.33 µM

COc1cc(Nc2ncnc(-n3ccc4ccccc43)n2)cc(OC)c1OC [Compound 185]
IC50 (FGFR1): > 11.9 µM | IC50 (Zap-70): > 11.9 µM | IC50 (c-Met): 9.27 to 11.9 µM | IC50 (Kdr): < 1060 nM | IC50 (EPHB4): > 11.9 µM | IC50 (Lyn): > 11.9 µM | IC50 (Tek): > 11.9 µM | IC50 (Ret-1): > 11.9 µM | IC50 (Hck-1): > 11.9 µM

COc1ccc2c(ccn2-c2ncnc(Nc3cc(OC)c(OC)c(OC)c3)n2)c1 [Compound 196]
IC50 (FGFR1): 5.89 to 8.59 µM | IC50 (Zap-70): > 11 µM | IC50 (c-Met): > 11 µM | IC50 (Kdr): < 982 nM | IC50 (EPHB4): > 11 µM | IC50 (Lyn): 5.89 to 8.59 µM | IC50 (Tek): > 11 µM | IC50 (Ret-1): > 11 µM | IC50 (Hck-1): > 11 µM

COc1cc2ccn(-c3ncnc(Nc4cc(OC)c(OC)c(OC)c4)n3)c2cc1OC [Compound 239]
IC50 (FGFR1): > 10.3 µM | IC50 (Zap-70): > 10.3 µM | IC50 (c-Met): > 10.3 µM | IC50 (Kdr): 914 to 5490 nM | IC50 (EPHB4): > 10.3 µM | IC50 (Lyn): > 10.3 µM | IC50 (Tek): > 10.3 µM | IC50 (Ret-1): > 10.3 µM | IC50 (Hck-1): > 10.3 µM

COc1cc(Nc2ncnc(N3CCCC4CCCCC43)n2)cc(OC)c1OC (stereo not drawn) [Compound 314]
IC50 (FGFR1): 6.01 to 8.76 µM | IC50 (Zap-70): > 11.3 µM | IC50 (c-Met): 1 to 6.01 µM | IC50 (Kdr): < 1000 nM | IC50 (EPHB4): > 11.3 µM | IC50 (Lyn): < 1 µM | IC50 (Tek): 1 to 6.01 µM | IC50 (Ret-1): > 11.3 µM | IC50 (Hck-1): 6.01 to 8.76 µM
